Results reported in patent US6872713B1, “Antiprotozoal saponins” (Janssen Pharmaceutica N.V., priority 1999, dated 2005).
In brackets after ≈: the same amount, converted by molar mass.

Legend:
[1] = tested on: L. donovani; test: In vitro antileishmanial activity in primary mouse macrophages, L. donovani; type: cell-based; conditions: Leishmania donovani, Macrophage, L. donovani (visceral)
Description: (§1) Methods for the in vitro growth of Leishmania organisms and screening methodology are well documented in the international literature. Testing protocols are flexible and may be adapted according to the specific objectives and the characteristics of the test compounds. Briefly, the following in vitro methodology has been used: Primary peritoneal macrophages derived from laboratory rodents or macrophage cell lines were seeded in multiwell tissue culture vessels and allowed to attach for about 24 hours. Amastigotes of the Leishmania species (obtained from target tissues of an infected donor animal or from amastigote-infected tissue cultures) or promastigotes of the Leishmania species were added at an appropriate infection ratio together with varying serially diluted concentrations of the drug or test compound. […] Treatment of uninfected control cultures was also included in order to determine a selectivity index. Reference drug treated cultures were included as well so as to determine the relative potency of the test drug. Drug activity was determined in stained preparations as the percentage reduction of the total parasite load or the number of infected macrophages compared to the untreated control cultures.

[2] = tested on: L. infantum; test: In vitro antileishmanial activity in macrophages, L. infantum; type: cell-based; conditions: Leishmania infantum, Macrophage; L. infantum (visceral), primary mouse macrophages
Description: as §1

[3] = tested on: L. mexicana; test: In vitro antileishmanial activity in primary mouse macrophages, L. mexicana; type: cell-based; conditions: Leishmania mexicana, Macrophage, L. mexicana (cutaneous)
Description: as §1

[4] = tested on: L. major; test: In vitro antileishmanial activity in primary mouse macrophages, L. major; type: cell-based; conditions: Leishmania major, Macrophage, L. major (cutaneous)
Description: as §1

[5] = tested on: L. mexicana; test: In vivo skin lesion model, L. mexicana (prophylactic and curative); design: species or system mice and hamsters; conditions: L. mexicana proph., 10 mg/kg
From the text: (§2) Methods for in vivo maintenance of Leishmania organisms and animals models are well documented in the international literature. Balb-C mice and golden hamsters are the preferred laboratory animal species for primary isolation, maintenance and use in artificial infection models. Testing protocols are flexible and may be adapted according to the specific objectives and characteristics of the test compounds. Briefly, the following in vivo methodologies have been used:
(§3) For cutaneous and mucocutaneous Leishmania species:Balb-C mice or young hamsters were infected intradermally or subcutaneously with about 10^6 to 10^7 amastigotes derived from the target organs (generally skin lesion) of an infected donor animal or from an in vitro culture of parasite forms. The animals were treated with the test compound at different dose levels (mg/kg in 100% DMSO or any other acceptable vehicle), using different routes of administration and treatment schedules. Initiation of treatment was either before infection (prophylactically) or at different times after infection (curatively). In the prophylactic study design, the first administration of the test drug is given immediately before or together with the artificial infection with the Leishmania species. In the curative study design, the first administration of the test drug is given several weeks after the artificial infection with the Leishmania species (early curative=when the first dermal lesions appear; late curative=when dermal lesions are well established or become chronic). Drug activity was evaluated either by determination of the severity of the lesion in the relevant target tissue/organ (primary parameter) or of the parasite burdens in the relevant target tissue/organ (secondary parameter), compared to untreated control animals. The lesion size was assessed quantitatively using the method of J. El-On. and A. D. Hamburger [Trans. Roy. Soc. Trop. Med. Hyg., 81, 734-737 (1987)]. The percentage reduction serves as an indication for antileishmanial activity and provides significant leads for clinically useful agents. The lowest active dose (LAD) is defined as the lowest dose which prevents lesions to develop, stops further evolution of the lesions or induces a clinical cure of the lesions in the primary target organ or tissue.

[6] = tested on: L. major; test: In vivo skin lesion model, L. major (prophylactic and curative); design: species or system mice and hamsters; conditions: L. major proph., 10 mg/kg
From the text: as §2, §3

[7] = tested on: L. panamensis; test: In vivo skin lesion model, L. panamensis (prophylactic and curative); design: species or system mice and hamsters; conditions: L. panamensis proph., 10 mg/kg
From the text: as §2, §3

[8] = tested on: L. donovani; test: Lowest active dose regimen in Balb-C mice, L. donovani; type: in vivo; conditions: no regimen given
From the text: as §2
For visceral Leishmania species: Balb-C mice or young hamsters were intravenously infected with about 10^6 to 10^7 amastigotes derived from the target organs (generally spleen) of an infected donor animal or from an in vitro culture of parasite forms. The animals were treated with the test compound at different dose levels (dose range: 0.1 to 80 mg/kg in 100% DMSO or any other acceptable vehicle), using different routes of administration and treatment schedules. Initiation of treatment was either at different times after infection (curatively), concomitant with infection (prophylactically) or before infection (residual activity). In the prophylactic study design, the first administration of the test drug is given immediately before or together with the artificial infection with the Leishmania species. In the curative study design, the first administration of the test drug is given several weeks after the artificial infection with the Leishmania species (early curative=when the first clinical signs appear; late curative=when the clinical symptoms are well established or become chronic). Drug activity was evaluated by determination of the total parasite burdens in the liver or any other relevant target tissue/organ, compared to the tissue/organ burdens in untreated control animals. The mean number of amastigotes is enumerated quantitatively or semi-quantitatively on stained impression smears or slides. The percentage reduction serves as an indication for antileishmanial activity and provides significant leads for clinically useful agents. […]

[9] = tested on: L mexicana; test: Lowest active dose regimen in Balb-C mice, L mexicana; type: in vivo; conditions: L mexicana prophylactic; no regimen given
From the text: as §2
(§4) For cutaneous and mucocutaneous Leishmania species:Balb-C mice or young hamsters were infected intradermally or subcutaneously with about 10^6 to 10^7 amastigotes derived from the target organs (generally skin lesion) of an infected donor animal or from an in vitro culture of parasite forms. The animals were treated with the test compound at different dose levels (mg/kg in 100% DMSO or any other acceptable vehicle), using different routes of administration and treatment schedules. […] Drug activity was evaluated either by determination of the severity of the lesion in the relevant target tissue/organ (primary parameter) or of the parasite burdens in the relevant target tissue/organ (secondary parameter), compared to untreated control animals. The lesion size was assessed quantitatively using the method of J. El-On. and A. D. Hamburger [Trans. […]

[10] = tested on: L. panamensis; test: Lowest active dose regimen in Balb-C mice, L. panamensis; type: in vivo; conditions: L. panamensis prophylactic; no regimen given
From the text: as §2, §4

[11] = tested on: L. major; test: Lowest active dose regimen in Balb-C mice, L. major; type: in vivo; conditions: L. major prophylactic; no regimen given
From the text: as §2, §4

Compound `C[C@@H]1[C@H](O)[C@@H](C)/C=C/C=C/C=C/C=C/C=C/C=C/C=C/[C@H](O[C@@H]2O[C@H](C)[C@@H](O)[C@H](N)[C@@H]2O)C[C@@H]2O[C@](O)(C[C@@H](O)C[C@@H](O)[C@H](O)CC[C@@H](O)C[C@@H](O)CC(=O)O[C@H]1C)C[C@H](O)[C@H]2C(=O)O` [Ampho-B, amphothericin-B] has an EC50 [1] of 0.1 mg/L (≈ 0.108 µM), an EC50 [2] of 0.1 mg/L (≈ 0.108 µM) and an EC50 [3] of 0.1 mg/L (≈ 0.108 µM). The EC50 [4] was 0.2 mg/L (≈ 0.216 µM), the skin lesion size ([5]; week 0 post infection) was 0 mm^2 and the skin lesion size ([5]; week 1 post infection) was 0 mm^2. The skin lesion size ([5]; week 2 post infection) was 0 mm^2, the skin lesion size ([5]; week 3 post infection) was 0 mm^2 and the skin lesion size ([5]; week 4 post infection) was 0 mm^2. The skin lesion size ([5]; week 5 post infection) was 1 mm^2, the skin lesion size ([5]; week 6 post infection) was 2 mm^2 and the skin lesion size ([5]; week 7 post infection) was 7 mm^2. For the same compound, the skin lesion size ([5]; week 8 post infection) was 13 mm^2, the skin lesion size ([5]; week 9 post infection) was 34 mm^2 and the skin lesion size ([5]; week 10 post infection) was 85 mm^2. The skin lesion size ([5]; week 11 post infection) was 101 mm^2, the skin lesion size ([5]; week 12 post infection) was 112 mm^2 and the skin lesion size ([6]; week 0 post infection) was 0 mm^2. It also gave a skin lesion size ([6]; week 1 post infection) of 0 mm^2, a skin lesion size ([6]; week 2 post infection) of 1 mm^2 and a skin lesion size ([6]; week 3 post infection) of 1 mm^2. For the same compound, the skin lesion size ([6]; week 4 post infection) was 12 mm^2, the skin lesion size ([6]; week 5 post infection) was 31 mm^2 and the skin lesion size ([6]; week 6 post infection) was 41 mm^2. For the same compound, the skin lesion size ([6]; week 7 post infection) was 57 mm^2, the skin lesion size ([6]; week 8 post infection) was 95 mm^2 and the skin lesion size ([7]; week 0 post infection) was 0 mm^2. The skin lesion size ([7]; week 1 post infection) was 0 mm^2, the skin lesion size ([7]; week 2 post infection) was 0 mm^2 and the skin lesion size ([7]; week 3 post infection) was 0 mm^2. The skin lesion size ([7]; week 4 post infection) was 1 mm^2, the skin lesion size ([7]; week 5 post infection) was 9 mm^2 and the skin lesion size ([7]; week 6 post infection) was 15 mm^2. For the same compound, the skin lesion size ([7]; week 7 post infection) was 30 mm^2, the skin lesion size ([7]; week 8 post infection) was 30 mm^2 and the skin lesion size ([7]; week 9 post infection) was 42 mm^2. It also gave a skin lesion size ([7]; week 10 post infection) of 42 mm^2, a skin lesion size ([7]; week 11 post infection) of 43 mm^2 and a skin lesion size ([7]; week 12 post infection) of 39 mm^2. For the same compound, the “Lowest active dose (LAD) regimen” value ([8]; L. donovani curative early) was “not effective”, the “Lowest active dose (LAD) regimen” value ([8]; L. donovani prophylactic) was “not effective” and the residual activity ([8]; L. donovani) was “not effective”. The “Lowest active dose (LAD) regimen” value [9] was “not effective”, the “Lowest active dose (LAD) regimen” value [10] was “not effective” and the “Lowest active dose (LAD) regimen” value [11] was “not effective”.

For `CCC(C)n1ncn(-c2ccc(N3CCN(c4ccc(OCC5COC(Cn6cncn6)(c6ccc(Cl)cc6Cl)O5)cc4)CC3)cc2)c1=O` (centres unmarked) [itraconazole], the EC50 [1] was over 12.5 mg/L and the EC50 [2] was over 12.5 mg/L.
